Patent publication US20200163938A1, “PHARMACEUTICAL COMPOSITION COMPRISING IRON CHELATOR EXHIBITING ANTITUMOR ACTIVITY, ANTIBACTERIAL ACTIVITY AND/OR ANTIVIRUS ACTIVITY, AND HAVING REDUCED SIDE EFFECTS” (priority 2017, published 2020)
Several values for one entry are separate records, joined by “and”; a condition that tells them apart may be missing. Equal entries are not always repeated. Entries after “also recorded” stand apart in the source; their conditions may differ. Structures can show the parent of a compound that is named as a salt. Where two headings read alike, the source gives them in different places.

Key:
A549 cells [1] = assay: Western blot of apoptosis-related factors; type: cell-based, human; settings: A549 cell lysate; FIG. 12
Excerpt: (§1) The cell lysate of each type of cells treated with the chelating agents of test groups 6 and 10 was Western-blotted, and then an increase or a decrease in apoptosis-related factors in treated cells was confirmed using the indicated antibodies. […] Concentration-dependent apoptosis induction was also biochemically confirmed.

MCF-7 cells = assay: Western blot of apoptosis-related factors; type: cell-based, human; settings: MCF-7 cell lysate; FIG. 12
Excerpt: as §1

HSC-2 cells [2] = assay: Western blot of apoptosis-related factors; type: cell-based, human; settings: HSC-2 cell lysate; FIG. 12
Excerpt: as §1

P. gingivalis Pg W83 = assay: Antibacterial activity, turbidity and ATP assay; type: cell-based, Porphyromonas gingivalis; settings: anaerobic culture 37° C., 18 hours, OD595 nm; FIG. 8
Protocol: A bacterial strain of one of periodontopathic bacteria, gram-negative bacillus, P. gingivalis, used herein was Pg W83. With the use of a liquid medium prepared by adding the chelating agent of each test group to a modified GAM bouillon medium, anaerobic culture (Anaeropack.anaerobic) was performed at 37° C. for 18 hours. Turbidity was found from optical density (OD595 nm). Results were as depicted in FIG. 8.

[3] = system: subcutaneously-transplanted HCT116 cells; type: in vivo, nude mice (BALB/c nu/nu)
Protocol: Next, the antitumor effects of the chelating agents of test groups 6 and 10 on HCT116-cell subcutaneous transplantation model mice, into which HCT116 cells had been subcutaneously transplanted, were confirmed. Mice prepared herein were nude mice (BALB/c nu/nu, 6 weeks old: Clea Japan Inc.). HCT116 cells were adjusted at 3×10^6/mouse, and then mixed with Matrigel (BD Biosciences) at 1:1. The thus obtained mixture was administered to mice, thereby preparing subcutaneous tumors. The dosage was 200 mg/kg/day (5 times/week administration). […] Tissue sections of HCT116 cells subcutaneously transplanted into the test group 10 administration group were prepared, and then hematoxylin-eosin (HE) staining, and TUNEL staining were performed by the above-mentioned method.

[4] = system: human influenza virus PR8 [A/PUERTORICO/8/34 (H1N1)]; assay: Suppression of viral infection of MDCK cells; type: cell-based; settings: 48 hours
Protocol: MDCK cells (canine renal tubule epithelial cells) were infected with a human influenza virus, and then an effect of suppressing the viral infection of MDCK cells was confirmed. Specifically, PR8 [A/PUERTORICO/8/34 (H1N1)] was adjusted at TCID50=2.81×10^6/mL as the influenza virus, the viral liquid and an equivalent amount of the chelating agent of test group 10 (concentration: 100 μg/mL, 250 μg/mL, 500 μg/mL, or 1000 μg/mL) were mixed and then left to stand at room temperature for 30 minutes. The above-prepared viral liquid was added to MDCK cells. After 48 hours, cells were observed, living cells (specifically, non-infected cells) remaining on the bottom of the culture dish were observed under a microscope. Results were as depicted in FIG. 16A.

[5] = system: human breast cancer cell line MCF-7; assay: Antitumor effects, cell viability (XTT method); type: cell-based; settings: FIG. 9
Protocol: (§2) The antitumor effects of the chelating agents of test groups 1 to 10 on each of human lung cancer cell line A549, human liver cancer cell line PLC, and human colon adenocarcinoma cell line HCT116 were confirmed. A549 cells or PLC cells were seeded at 3000 cells/well, and HCT116 cells were seeded at 6000 cells/well. After 24 hours, the fetal bovine serum (FBS) concentration was changed from 10% to 1%, each compound of the test groups 1 to 10 was introduced into medium. Cell viability was confirmed after 48 hours by the Trypan blue method, or, cell viability was confirmed after 48 hours by performing medium exchange and then after 24 hours by performing the XTT method. Deferoxamine mesylate (Desferal (Trademark)) was used as a positive control. Results are as depicted in FIGS. 1A, 1B, 2 and 3.
(§3) Moreover, similarly to the above experiment on antitumor effects, the antitumor effects of the chelating agent of test group 6 or 10 on each of human breast cancer cell line MCF-7 and human oral squamous cell carcinoma HSC-2 were confirmed.

[6] = system: human oral squamous cell carcinoma HSC-2; assay: Antitumor effects, cell viability (XTT method); type: cell-based; settings: FIG. 10
Protocol: as §2, §3

HSC-2 cells [7] = assay: Apoptosis induction, TUNEL staining; type: cell-based, human; settings: 50 μg/mL, 48 hours, FIG. 11A
Protocol: (§4) Furthermore, the apoptosis-inducing effects of the chelating agents of test groups 6 and 10 on tumors were confirmed. First, 100 μg/mL of the chelating agent of test group 6 or 50 μg/mL of the chelating agent of test group 10 was added to HSC-2 cells in a culture solution. After 48 hours of reaction, TUNEL Assay was carried out. Specifically, apoptosis induction was evaluated by the TUNEL staining method using a MK500 in situ Apoptosis Detection Kit (Takara Bio Inc.).

HCT116 cells = assay: Apoptosis induction, TUNEL staining; type: cell-based, human; settings: 6.5 µg/mL, 48 hours, FIG. 11B
Protocol: as §4
(§5) Similarly, the apoptosis-inducing effects of the chelating agent of test group 6 or 10 on HCT116 cells were confirmed. 10 μg/mL of the chelating agent of test group 6 was added and 6.5 µg/mL of the chelating agent of test group 10 was added to the cells. After 48 hours of reaction, TUNEL staining was carried out similarly to the above.

A549 cells [8] = assay: Apoptosis induction, TUNEL staining; type: cell-based, human; settings: 50 μg/mL, 48 hours, FIG. 11C
Protocol: as §4
as §5, with “Further, the” for “Similarly, the”, “on A549” for “on HCT116”, “confirmed. 100” for “confirmed. 10”, “and 50 μg/mL” for “and 6.5 µg/mL”

[9] = type: in vivo; design: NEFA: unit not given here; settings: for Body weight: rats
Protocol: To a negative control group (saline administration; n=6), the same amount of saline was administered. On day 14 after administration, determining life or death, measurement of body weight, physical items (respiration, body temperature, behavior, etc.) were observed. Moreover, blood samples were taken from each group, and the right kidneys and the livers were removed. Results were as depicted in FIG. 5A to 5C and Tables 4 to 9.

[10] = mouse, in vivo, 300 mg/kg
Protocol: To each of 6-week-old Jcl: ICR mice divided into a test group 6 administration group (n=3), a test group 9 administration group (n=3), and a test group 10 administration group (n=3), the chelating agent of each test group was administered at a dose of 300 mg/kg body weight via tail vein. To a positive control group (administration; n=4), deferoxamine mesylate was administered at a dose of 300 mg/kg body weight via tail vein. On day 7 after administration, determining life or death, and physical items (respiration, body temperature, behavior, etc.) were observed.

[11] = rat blood, oral 200 mg/kg, day 14
[12] = rat blood, oral 1000 mg/kg, day 14
[13] = rat blood, oral 1000 mg/kg, day 14, 1000 mg/kg

With Cl.O=C(O)[C@H](Cc1c[nH]cn1)NCc1ccc(O)c(O)c1O [Test group 10] the “PARP cleaved fragments and caspase-3-cleaved fragments (Western blot)” value (A549 cells [1]) was “PARP cleaved fragments and caspase-3-cleaved fragments were confirmed”, the “PARP cleaved fragments and caspase-3-cleaved fragments (Western blot)” value (MCF-7 cells) was “PARP cleaved fragments and caspase-3-cleaved fragments were confirmed” and the “PARP cleaved fragments and caspase-3-cleaved fragments (Western blot)” value (HSC-2 cells [2]) was “PARP cleaved fragments and caspase-3-cleaved fragments were confirmed”. For the same molecule, the “antimicrobial effects on P. gingivalis (turbidity)” value (P. gingivalis Pg W83) was “exhibited antimicrobial effects”, the “in vivo apoptosis induction in tumor tissue sections (TUNEL staining)” value ([3]; HCT116 subcutaneous tumor tissue, 200 mg/kg/day, FIG. 13B) was “FITC-derived green-stained cell images indicating apoptosis induction were confirmed” and the body weight change ([3]; mouse, in vivo, 200 mg/kg/day) was “no change in body weight was observed”. The “in vivo antitumor effects” value ([3]; subcutaneously-transplanted HCT116 cells, nude mice, 200 mg/kg/day (5 times/week), FIGS. 13A, 14) was “exhibited antitumor effects”, the “effect of suppressing viral infection” value ([4]; 500 μg/mL) was “observed to have the effect of suppressing viral infection” and the “antitumor effects on MCF-7 (cell viability)” value [5] was “exhibit antitumor effects”. For the same molecule, the “antitumor effects on HSC-2 (cell viability)” value [6] was “exhibit antitumor effects”, the “apoptosis-inducing effects (TUNEL staining)” value (from here on “apoptosis-inducing effects”) (HSC-2 cells [7]) was “green-stained cells indicating apoptosis were confirmed” and the “apoptosis-inducing effects” value (HCT116 cells) was “green-stained cells indicating apoptosis were confirmed”. For the same molecule, the “apoptosis-inducing effects” value (A549 cells [8]) was “green-stained cells (FITC positive cells) indicating apoptosis were confirmed”, the ALP [9, 11] was 603 IU/L and the ALT [9, 11] was 33 IU/L. It also gave an AST [9, 11] of 61 IU/L, a BUN [9, 11] of 22.5 mg/dL and a CRE [9, 11] of 0.37 mg/dL. The Ca [9, 11] was 11.2 mg/dL, the GLU [9, 11] was 278 mg/dL and the K [9, 11] was 6.1 mEQ/L. For the same molecule, the LD [9, 11] was 53 IU/L, the NEFA [9, 11] was 111 and the Na [9, 11] was 146 mEQ/L. For the same molecule, the T-Bil [9, 11] was 0.06 mg/dL, the TP [9, 11] was 5.5 g/dL and the ALT [9, 12] was 25 IU/L. The CRE [9, 12] was 0.36 mg/dL, the ALP [9, 13] was 592 IU/L and 618 IU/L and the AST [9, 13] was 56 IU/L and 90 IU/L. The BUN [9, 13] was 24.6 mg/dL and 22.8 mg/dL, the Ca [9, 13] was 10.6 mg/dL and 10.5 mg/dL and the GLU [9, 13] was 259 mg/dL and 187 mg/dL. The K [9, 13] was 4.8 mEQ/L and 4.9 mEQ/L, the Na [9, 13] was 142 mEQ/L and 143 mEQ/L and the TP [9, 13] was 5.4 g/dL and 5.7 g/dL. The Body weight ([9]; oral 200 mg/kg) was 170.83 g and the Body weight ([9]; oral 1000 mg/kg, 1000 mg/kg) was 170.73 g and 185.29 g.
In the case of CC(=O)N(O)CCCCCNC(=O)CCC(=O)N(O)CCCCCNC(=O)CCC(=O)N(O)CCCCCN [deferoxamine mesylate, Deferoxamine mesylate], the “effect of suppressing viral infection” value ([4]; 500 μg/mL or 1000 μg/mL, listed as Desferal) is reported as “the effect of suppressing viral infection was not observed; also recorded: unable to inhibit viral infection” and the life or death [10] is reported as “died immediately after administration”.
